GI, GI50 and EC50 data for 19 compounds are collected here from ChEMBL document CHEMBL1157215, “Isolation and structural modification of 7-deoxynarciclasine and 7-deoxy-trans-dihydronarciclasine” (2006).

Holding throughout (format): functional
One assay deals with BXPC-3. As to the kind of experiment: Growth inhibition of human BXPC3 cells.
The next assay deals with MCF7. The assay can be described thus: Growth inhibition of human MCF7 cells.
The nature of assay [1]: Growth inhibition of human SF269 cells.
The test system of the next assay is NCI-H460. The assay can be described thus: Growth inhibition of human NCI-H460 cells.
A further assay deals with KM-20L2. The assay can be described thus: Growth inhibition of human KM20L2 cells.
The subject of another assay is DU-145. The assay can be described thus: Growth inhibition of human DU145 cells.
The test system of another assay is P388. As to the kind of experiment: Growth inhibition of mouse P388 cells. The conditions noted are these: for EC50: read-out: ED50 (the source's name).

≈ marks a conversion by molar mass, not a printed value. A value given as a limit tells only on which side of the number the result lay.

For `O=C1N[C@H]2[C@H](O)[C@H](O)[C@@H](O)C[C@@H]2c2cc3c(cc21)OCO3`, in the assay on BXPC-3, the GI worked out at 0.036 µg/mL. In addition, the GI50 turned out to be 0.03 µg/mL (≈ 0.102 µM) in the assay with MCF7; 0.03 µg/mL (≈ 0.102 µM) in assay [1]; 0.037 µg/mL (≈ 0.126 µM) in the assay with NCI-H460; 0.028 µg/mL (≈ 0.0955 µM) with KM-20L2; 0.025 µg/mL (≈ 0.0852 µM) in the assay with DU-145. For the same compound, the EC50 in the assay with P388 is less than 0.01 µg/mL.
With `O=C1N[C@@H]2C(=C[C@H](O)[C@@H](O)[C@H]2O)c2cc3c(cc21)OCO3`, the GI in the assay with BXPC-3 worked out at 0.12 µg/mL. Besides, the GI50 with MCF7 was 0.093 µg/mL (≈ 0.319 µM); in assay [1] it was 0.047 µg/mL (≈ 0.161 µM); in the assay on NCI-H460, 0.11 µg/mL (≈ 0.378 µM); in the assay on KM-20L2, 0.15 µg/mL (≈ 0.515 µM); in the assay with DU-145 it was 0.062 µg/mL (≈ 0.213 µM). Moreover, in the assay with P388, the EC50 is less than 0.01 µg/mL.
For the compound `Cl.O[C@@H]1[C@H](O)[C@@H](O)C[C@@H]2c3cc4c(cc3CN[C@@H]12)OCO4`, the GI in the assay on BXPC-3 is 1.4 µg/mL. Also, the GI50 with MCF7 was determined as 1.7 µg/mL; in assay [1] it was 1.6 µg/mL; in the assay with NCI-H460, 0.78 µg/mL; in the assay on KM-20L2 it was 1.7 µg/mL; with DU-145 it was 0.71 µg/mL. In addition, the EC50 with P388 was 3.3 µg/mL.
Regarding `O[C@@H]1[C@H](O)[C@@H](O)C[C@@H]2c3cc4c(cc3CN[C@@H]12)OCO4`, in the assay with BXPC-3, the GI was greater than 10 µg/mL. Further, the GI50 with MCF7 was greater than 10 µg/mL; in assay [1], greater than 10 µg/mL; in the assay with NCI-H460, 7.5 µg/mL (≈ 26.9 µM); in the assay with KM-20L2 it was greater than 10 µg/mL; in the assay on DU-145 it was 4.4 µg/mL (≈ 15.8 µM). Moreover, the EC50 in the assay with P388 came to 0.43 µg/mL (≈ 1.54 µM).
Turning to `Cl.O[C@@H]1[C@H](O)[C@@H](O)C=C2c3cc4c(cc3CN[C@H]21)OCO4`, in the assay with BXPC-3, the GI worked out at 4.4 µg/mL. For the same compound, the GI50 is 3.4 µg/mL in the assay with MCF7; 2.9 µg/mL in assay [1]; 3.4 µg/mL with NCI-H460; greater than 10 µg/mL with KM-20L2; 3.2 µg/mL with DU-145. The EC50 in the assay on P388 stood at 7.1 µg/mL.
Take `CC1(C)O[C@@H]2[C@H](O1)[C@@H](O)C=C1c3cc4c(cc3C(=O)N[C@H]12)OCO4`: the GI50 in the assay with P388 is greater than 10 µg/mL.
`CC1(C)O[C@@H]2[C@H](O1)[C@@H](O[Si](C)(C)C(C)(C)C)C=C1c3cc4c(cc3C(=O)N[C@H]12)OCO4` had a GI50 with P388 greater than 10 µg/mL.
`CC1(C)O[C@H]2[C@@H]3NC(=O)c4cc5c(cc4[C@H]3C[C@H](O)[C@H]2O1)OCO5` yielded a 50% growth inhibitory concentration (GI50) in the assay on P388 greater than 10 µg/mL.
In the case of `CC(=O)O[C@H]1[C@@H]2NC(=O)c3cc4c(cc3[C@H]2C[C@H](OC(C)=O)[C@H]1OC(C)=O)OCO4`, the GI in the assay on BXPC-3 came out at 0.69 µg/mL. In addition, the GI50 in the assay on MCF7 was found to be 0.46 µg/mL (≈ 1.1 µM); in assay [1], 0.3 µg/mL (≈ 0.715 µM); with NCI-H460, 1.5 µg/mL (≈ 3.58 µM); in the assay on KM-20L2, 0.66 µg/mL (≈ 1.57 µM); in the assay on DU-145, 0.46 µg/mL (≈ 1.1 µM). Further, the EC50 in the assay on P388 was 1.61 µg/mL (≈ 3.84 µM).
In the case of `CC1(C)O[C@@H]2[C@H](O1)[C@@H](O)C=C1c3cc4c(cc3CN[C@H]12)OCO4`, the GI50 in the assay on P388 was greater than 10 µg/mL.
`CC1(C)O[C@H]2[C@@H]3NCc4cc5c(cc4[C@H]3C[C@H](O[Si](C)(C)C(C)(C)C)[C@H]2O1)OCO5` displayed a GI50 in the assay on P388 greater than 10 µg/mL.
`CC1(C)O[C@H]2[C@@H]3NC(=O)c4cc5c(cc4[C@H]3C[C@H](O[Si](C)(C)C(C)(C)C)[C@H]2O1)OCO5`: in the assay on P388, the GI50 is greater than 10 µg/mL.
In the assay with BXPC-3, `CC(=O)O[C@H]1C=C2c3cc4c(cc3C(=O)N[C@H]2[C@H](O)[C@@H]1O)OCO4` displayed a GI of 0.26 µg/mL. In addition, the GI50 with MCF7 is 0.24 µg/mL (≈ 0.72 µM); in assay [1], 0.19 µg/mL (≈ 0.57 µM); in the assay on NCI-H460, 0.32 µg/mL (≈ 0.96 µM); in the assay on KM-20L2, 0.18 µg/mL (≈ 0.54 µM); in the assay with DU-145, 0.26 µg/mL (≈ 0.78 µM). Also, the EC50 in the assay with P388 was less than 0.01 µg/mL.
On to `CC1(C)O[C@H]2[C@@H]3NCc4cc5c(cc4[C@H]3C[C@H](O)[C@H]2O1)OCO5`, for which, in the assay with P388, the GI50 is greater than 10 µg/mL.
In the case of `CC(=O)O[C@H]1C=C2c3cc4c(cc3C(=O)N[C@H]2[C@@H]2OC(C)(C)O[C@@H]21)OCO4`, the GI50 in the assay with P388 was greater than 10 µg/mL.
As for `CC1(C)O[C@@H]2[C@H](O1)[C@@H](O[Si](C)(C)C(C)(C)C)C=C1c3cc4c(cc3CN[C@H]12)OCO4`, in the assay with P388, the GI50 is greater than 10 µg/mL.
`CC(=O)O[C@@H]1[C@H](OC(C)=O)[C@@H](OC(C)=O)C=C2c3cc4c(cc3C(=O)N[C@H]21)OCO4` [LYCORICIDINE TRIACETATE] had a GI in the assay on BXPC-3 of 0.2 µg/mL. For the same compound, the concentration for 50% growth inhibition (GI50) is 0.59 µg/mL with MCF7; 0.15 µg/mL in assay [1]; 1.2 µg/mL with NCI-H460; 0.18 µg/mL in the assay with KM-20L2; 0.48 µg/mL in the assay with DU-145. In addition, the EC50 in the assay on P388 was found to be 0.158 µg/mL.
In the case of `O=C1N[C@@H]2C(=C[C@H](O)[C@@H](O)[C@H]2O)c2cc3c(c(O)c21)OCO3` [NARCICLASINE], the GI with BXPC-3 was found to be 0.026 µg/mL. In addition, the GI50 in the assay on MCF7 is 0.019 µg/mL (≈ 0.0618 µM); in assay [1], 0.021 µg/mL (≈ 0.0683 µM); with NCI-H460, 0.032 µg/mL (≈ 0.104 µM); with KM-20L2 it was 0.21 µg/mL (≈ 0.683 µM); in the assay on DU-145, 0.011 µg/mL (≈ 0.0358 µM). For the same compound, the EC50 in the assay on P388 came to 0.002 µg/mL (≈ 0.00651 µM).
As to `O=C1N[C@H]2[C@H](O)[C@H](O)[C@@H](O)[C@H](O)[C@@H]2c2cc3c(c(O)c21)OCO3` [PANCRATISTATIN], the GI in the assay with BXPC-3 was determined as 0.028 µg/mL. The GI50 amounted to 0.032 µg/mL (≈ 0.0984 µM) with MCF7; 0.017 µg/mL (≈ 0.0523 µM) in assay [1]; 0.048 µg/mL (≈ 0.148 µM) in the assay on NCI-H460; 0.026 µg/mL (≈ 0.0799 µM) in the assay with KM-20L2; 0.016 µg/mL (≈ 0.0492 µM) with DU-145. Also, in the assay with P388, the EC50 worked out at 0.039 µg/mL (≈ 0.12 µM).
